We go through 7 molecules from patent US12648948B2, “Methods and compositions for treating cancer” (UNITED STATES GOVERNMENT AS REPRESENTED BY THE DEPARTMENT …, priority 2017, dated 2026).

In series [1] the test system is primary embryonic cultures and differentiated PC12 cells. The conditions noted are these: at dosages that inhibit activation of JNKs, after trophic withdrawal; cited from earlier work.
Series [2] relates to GBM9 and GBM39 neurospheres. Kind of series: AlamarBlue cell viability assay, patient derived GBM neurospheres. The note with it: 72 h; for Cell viability, inhibitor combined with erlotinib: erlotinib 100 nM, SP600125, U0126, R428, thalidomide 1 μM, Enbrel 100 nM; for Cell viability, inhibitor alone: without erlotinib, 1 μM. The format is cell-based, human. On the procedure:
(§1) Cell viability assay was conducted using AlamarBlue cell viability assay kit (ThermoFisher) following manufacturer's protocol. Cells were cultured in Corning 96-well black plates with clear bottom (5000 cells/well). Drugs were added to cells for 72 hour following detection using POLARstar Omega Microplate Reader (excitation at 544 nm and emission at 590 nm) (BMG LABTECH, Germany).
(Resazurin is reduced to fluorescent resorufin, in cell work by metabolically active cells.)

The test system of series [3] is U87EGFRwt and U87EGFRvIII cells. Kind of series: AlamarBlue cell viability assay, established GBM cell lines. The format is cell-based, human. The conditions noted are these: established GBM cell lines, 72 h; for Cell viability, inhibitor alone: without erlotinib. On the procedure:
as §1

In the next series the test system is GBM9 cells. Kind of series: Annexin-FACS assay and Caspase 3/7 activation. The format is cell-based, human. The conditions noted are these: GBM9 cells, 72 h, Annexin-FACS. The method, then: Annexin assay was performed by using Annexin—V-FLUOS Staining kit (Roche applied Science). Cells (1×10^6) were plated in 6 well plates and treated with drugs or vehicle alone. After 72 hours cells were trypsinized and washed 2 times with 1×PBS. The cells were incubated for 15 minutes at room temperature with Propidium Iodide and Annexin—V-FLUOS labeling solution in incubation buffer. Annexin and/or PI positive cells were detected by Flow Cytometry.
Caspase activity in the supernatant was measured using the Caspase-Glo 3/7 Assay (Promega, G8091) following manufacturer's instructions. Briefly, 72 hours after treatments, cells were washed by cold PBS and total cell lysates were prepared. 50 μg of total protein per sample was added per well of a 96 well plate and was incubated with 100 μl Caspase 3/7 reagent for 30 minutes. The luminescence of each sample was measured using a luminometer. All experiments included at least 3 replicates per group and were repeated 3 times.

Another series relates to GBM. The conditions noted are these: cited from earlier work.
Series [4] deals with JNK-Axl-ERK signaling axis. Kind of series: Signal transduction in intracranial GBM9 tumors (Western blot, IHC). The format is in vivo, mice. The conditions noted are these: thalidomide given with erlotinib. On the procedure: To detect the in vivo levels of TNF, 1×10^6 GBM9 cells were injected into the right flanks of nude mice. When the subcutaneous tumor reached a volume of around 200 mm^3, the mice were treated with erlotinib to monitor the upregulation of TNF protein. The animals were dosed consecutively for 1, 2, 7 or 14 days and then sacrificed. The animals without treatment were considered as control (0-day treatment). Tumor tissues were rinsed in PBS and protein was extracted to analyze the TNF levels using ELISA and also used for western blot. To detect the protein expression in mice brain tumor tissues upon drug treatment, the same procedure was performed in orthotopic models. Additionally, with orthotopic models, mice were divided into four groups (control gavage group, erlotinib group, thalidomide group and erlotinib plus thalidomide, n=3). After 48 hours treatment tumors were harvested and subjected to Western blot and immunostaining.
Tumors from nude mice brains were fixed in 10% formalin and embedded in paraffin. Paraffin-embedded sections were cut at five-micrometer thickness. Immunohistochemical staining was performed using the ABC streptavidin-biotin method with the Vectastain ABC kit (Vector Laboratories, Burlingame, CA, USA) according to the manufacturer's protocol. Briefly, after deparaffinization and rehydration, endogenous peroxidase activity was quenched by a 10 min incubation in 3% H2O2. For antigen retrieval, the tissue sections were boiled in 10 mM sodium citrate buffer (pH 6.0) for 20 minutes. Binding of primary anti-pERK (1:100, Cell Signaling Technology, 4376) or anti-pJNK antibody (1:200, Cell signaling Technology, 4668) or anti-pAXL(1:400, R&D, AF2228) was carried out overnight at 4° C. The signal was detected by using the Sigmafast 3,3′-Diaminobenzidine tablets (DAB; Sigma, St. Louis MO). The sections were counterstained lightly with hematoxylin. The IHC staining intensity was scored semiquantitatively as: 0=No positive staining; 1=1-25% tumor cells stained, 2=26%-75% tumor cells stained and 3=>75% tumor cells stained.
A general note: In western blotting, separated proteins are transferred to a membrane and probed.

The conditions of series [5]: mouse, in vivo.
The subject of the next series is TNF. The series is described as follows: TNF mRNA (qRT-PCR) and TNF ELISA in glioma cells. The format is cell-based, human. The conditions noted are these: GBM9 and U87EGFRwt, thalidomide 1 μM. The method, then:
Total RNA was isolated by TRIzol Reagent (Ambion). cDNA Reverse Transcription were performed by using High-Capacity cDNA Reverse Transcription Kit (Applied Biosystems). PCR primers were synthesized by IDT (Coralville, IA). Each PCR was carried out in triplicate in a 20 μl volume using SYBR Green Master Mix (Applied Biosystems) for 15 minutes at 95° C. for initial denaturing, followed by 40 cycles of 95° C. for 15 s and 60° C. for 60 s in ViiA 7 Real-Time PCR System (Applied Biosystems). At least two independent experiments were done. Values for each gene were normalized to expression levels of GAPDH mRNA.
2×10^6 cells were incubated in serum-free or EGF free medium containing different concentrations of erlotinib or DMSO. After 48 hours, supernatant and cell lysates were collected. Supernatant medium was concentrated 5-10-fold with Pierce protein concentrator (ThermoFisher). TNF protein concentration in supernatant, cell lysates and tissue extracts was determined by ELISA using a commercial TNF detection kit (ThermoFisher) according to manufacturer's instructions. Additionally, GAS6 protein concentration in supernatant was measured by ELISA kit (LifeSpan BioSciences).
A general note: Quantitative PCR measures a nucleic acid by following its amplification.

The next series concerns GBM9 intracranial tumors. The series is described as follows: Orthotopic (intracranial) GBM9 model, survival and bioluminescence imaging. The conditions noted are these: erlotinib 50 mg/kg oral gavage and/or thalidomide 150 mg/kg i.p., 10 days; repeated with afatinib.
Series [6] concerns JNK-Axl-ERK signaling pathway. Kind of series: Western blot, erlotinib-induced JNK-Axl-ERK signaling pathway in glioma cells. The conditions noted are these: GBM9, GBM39 neurospheres and U87EGFRwt cells. The format is cell-based, human. The method, then:
Western blot analysis was performed according to standard protocols.

The next series deals with GBM9 subcutaneous tumors. Kind of series: Subcutaneous GBM9 xenograft tumor growth. The conditions noted are these: erlotinib 50 mg/kg oral gavage, SP600125 40 mg/kg i.p., thalidomide 150 mg/kg i.p., daily for 10 days. The format is in vivo, athymic nude mice. On the procedure:
4 to 6 weeks old female athymic nude mice were purchased from Charles River Laboratories. The mice were housed in plastic cages (4-5 mice per cage) in a room with a 12 hour day-night cycle. 1×10^6 GBM9 cells were subcutaneously injected into the right flank of each nude mouse. […] The mice were randomly divided into control and treatment groups, mice were treated with drugs using the indicated doses. For combination treatment, both drugs were given concurrently for indicated periods. Tumor dimensions were measured by caliper every two days and tumor volumes calculated by the formula: volume=length×width×width/2. Mice were sacrificed when tumors reached over […] or 24 days from the first day of treatment.

In a further series the test system is EGFR. The series is described as follows: Western blot, EGFR activation in U87EGFRwt cells. The format is cell-based, human. The note with it: serum starved, cetuximab overnight, EGF 50 ng/ml 15 min.
A further series relates to ERK. Kind of series: Western blot, ERK activation (pERK) in glioma cells. The note with it: U87EGFRwt cells, serum starved; cetuximab overnight; EGF 50 ng/ml 15 min.
The mark [7] stands for this setting: single-arm phase II trial, GBM patients at first recurrence.

Method for GBM9 intracranial tumors: For the orthotropic model, 1×10^5 GBM9 cells expressing firefly luciferase were injected into the right corpus striatum of the brains of 6-8-week-old nude mice using a stereotactic frame. […] The mice were treated with erlotinib 50 mg/kg by oral gavage and/or intraperitoneal (i.p.) injection of 150 mg/kg thalidomide for 10 consecutive days. Bioluminescence imaging (BLI) was performed to record the growth of tumor every 5 days. Kaplan-Maier survival curves were calculated using GraphPad Prism 7.0 software. Mice were monitored and sacrificed when neurological signs appeared or after 40 days.

With `CCSCc1ccc2c(c1)c1c3c(c4c5cc(CSCC)ccc5n5c4c1n2[C@H]1C[C@](O)(C(=O)OC)[C@]5(C)O1)CNC3=O` [CEP-1347], the Neuronal survival entry in [1] was “promotes neuronal survival”.

With `Nc1nc(Nc2ccc3c(c2)CC[C@@H](N2CCCC2)CC3)nn1-c1cc2c(nn1)-c1ccccc1CCC2` [R428], in series [2], the “Cell viability, inhibitor combined with erlotinib” value (“Cell viability, inhibitor combined” below) is “sensitive to erlotinib” and the “Cell viability, inhibitor alone” value is reported as “does not affect the viability of these cells”. For the same molecule, in series [3], the “Cell viability, inhibitor combined” value was “sensitive to erlotinib” and the “Cell viability, inhibitor alone” value is listed as “does not affect the viability of these cells”. Further, the “Number of viable (unstained) cells, inhibitor combined with erlotinib” value (“Number … inhibitor combined with erlotinib” below) in the series with GBM9 cells is given as “decreases the number of viable cells”.

Take `N#CC(=C(/N)Sc1ccccc1N)/C(C#N)=C(\N)Sc1ccccc1N` [U0126]: in series [2], the “Cell viability, inhibitor combined” value was “significant cell death” and the “Cell viability, inhibitor alone” value is “resistant to JNK or ERK inhibition alone”. In series [3], the “Cell viability, inhibitor combined” value is “a combined inhibition of EGFR with ERK or JNK leads to a significant cell death” and the “Cell viability, inhibitor alone” value was “also resistant to EGFR inhibition or JNK inhibition or ERK inhibition alone”. The “Number … inhibitor combined with erlotinib” value in the series on GBM9 cells is on record as “decreases the number of viable cells”.

Take `COc1cc2ncnc(Nc3ccc(F)c(Cl)c3)c2cc1OCCCN1CCOCC1` [gefitinib]: in the series on GBM (setting [7]), the “Median overall survival (OS)” value was “about 39 weeks” and the Radiographic responses entry is reported as “No radiographic responses”.

Turning to `O=C1CCC(N2C(=O)c3ccccc3C2=O)C(=O)N1` (stereo not shown) [thalidomide], the “Clinical efficacy in GBM patients” value with GBM (human, in vivo) is “without success”. The “JNK-Axl-ERK signaling axis in intracranial tumors (Western blot)” value in series [4] (erlotinib 50 mg/kg) is “blocked the EGFR inhibition induced upregulation of the TNF-JNK-Axl-ERK signaling axis”. In addition, the “pAxl, pJNK and pERK immunostaining of brain sections” value in series [4] (orthotopic model) is reported as “inhibits erlotinib induced pAxl-pJNK-pERK activation”. The “Cell viability, thalidomide combined with afatinib” value in [2] (afatinib 100 nM, thalidomide 1 μM) is recorded as “sensitizes”. Besides, the “Cell viability, inhibitor combined” value in series [2] and in [3] was “had the same effect” each time. Besides, in series [5], the “Body weight of orthotopic models” value is on record as “Body weight losses”. For the same molecule, in the series with TNF, the “Erlotinib-induced increase in TNF secretion in presence of thalidomide” value was “block the erlotinib-induced increase in TNF secretion”. Also, in the series on GBM9 intracranial tumors, the Survival of mice result is on record as “neither erlotinib nor thalidomide alone had a significant effect”. In [6], the “Erlotinib-induced activation of the JNK-Axl-ERK signaling pathway in presence of TNF inhibitor” value was “interruption of the erlotinib-induced activation of the JNK-Axl-ERK signaling pathway”. In addition, the “Growth of subcutaneous tumors” value with GBM9 subcutaneous tumors is “no significant effect on the growth of tumors”. Besides, in the series with GBM9 cells, the “Number … inhibitor combined with erlotinib” value is recorded as “decreases the number of viable cells”.

Consider “EGF: Recombinant human EGF from Peprotech”, for which the “Basal EGFR activation” value in the series on EGFR was “further increases in EGFR and ERK activation”. Also, in the series with ERK, the “Basal ERK activation” value was “further increases in EGFR and ERK activation”.

Turning to Etanercept, the “Cell viability, inhibitor combined” value in [2] and in [3] was “sensitive to the effects of EGFR inhibition” in each case. In addition, the “Erlotinib-induced activation of the JNK-Axl-ERK signaling pathway in presence of TNF inhibitor” value in series [6] was “interruption of the erlotinib-induced activation of the JNK-Axl-ERK signaling pathway”. Also, the “Number … inhibitor combined with erlotinib” value in the series on GBM9 cells was “decreases the number of viable cells”.
